Data set [1] relates to C. pneumoniae. The data set can be described thus: Rabbit model of atherosclerosis accelerated by C. pneumoniae infection, high cholesterol diet. The format is in vivo. To be noted: C. pneumoniae-infected rabbits; for infectious burden of Chlamydia in the vasculature (in words): versus placebo. As to the method: Thirty received three separate C. pneumoniae inoculations performed at 3-week intervals. Similarly, 15 control rabbits were intranasally inoculated with 1 mL of normal saline under the same conditions. [table] Nineteen weeks after beginning antibiotic treatment, the rabbits were euthanized. After euthanasia, hearts were examined histologically and by immunofluorescence. Animal serum samples were also examined for seropositivity to the infecting organism. […] In the current study, the time after infection and treatment with either azithromycin or rifalazil was increased by seven weeks, a more rigorous test for the durability of treatment. Consistent with previously published work, C. pneumoniae-infected rabbits accumulated more plaque than non-infected rabbits (p=0.08).

Data set [2] is classed as physicochemical. As to the method:
Rifalazil is a highly lipophilic molecule having limited solubility in water at physiological pH (approximately 200 ng/mL). Evidence of the highly lipophilic behavior of the molecule is illustrated in the partition coefficient (n-octanol:water) of between 70, 569 and over 900,000 in different experiments (Log P range; 4.9-5.9).

Data set [3] is described as follows: Degradation to 25-desacetyl derivative under acidic and basic conditions. The class given is physicochemical. The text has this:
Rifalazil degrades to a 25-desacetyl derivative under both acidic and basic conditions. Typical of ester hydrolysis, the degradation in highly alkaline solutions is rapid while at an acidic pH, e.g., pH 1, the degradation at room temperature is slower, approximately 6% in one hour.

In data set [4] the test system is C. pneumoniae. The data set can be described thus: Potency against C. pneumoniae relative to roxithromycin. The class given is cell-based. Particulars: fold more potent than roxithromycin. The source says:
(§1) Both preclinical and clinical lines of evidence support the use of rifalazil in the methods of the invention. […] In addition, based on overall safety data in animals and man, we believe that a dose of rifalazil can safely be administered, tolerated, and will likely result in clinical benefit through its anti-Chlamydia action in these patients.

The next data set has as its system Chlamydia. Briefly: Phase 2 study in men with non-gonococcal urethritis. To be noted: single oral dose. The format is in vivo.
Text: as §1

Data set [5] has as its system C. pneumoniae. Particulars: C. pneumoniae-infected rabbits, previously published study; cited from earlier work.

Entries after “also recorded” stand apart in the source; their conditions may differ.

`CO[C@H]1/C=C/O[C@@]2(C)Oc3c(C)c(O)c4c(=O)c(c5oc6cc(N7CCN(CC(C)C)CC7)cc(O)c6nc-5c4c3C2=O)NC(=O)/C(C)=C\C=C\[C@H](C)[C@H](O)[C@@H](C)[C@@H](O)[C@@H](C)[C@H](OC(C)=O)[C@@H]1C` [rifalazil, 3′-hydroxy-5′-(4-isobutyl-1-piperazinyl)benzoxazinorifamycin]: in the data set on C. pneumoniae [1], the “plaque area stenosis compared with placebo-treated animals (in words)” value is “reduced C. pneumoniae burden and plaque area stenosis; also recorded: showed a trend in producing significantly reduced plaque area stenosis”; the “infectious burden of Chlamydia in the vasculature (in words)” value was “reduced C. pneumoniae burden; also recorded: reduced the infectious burden of Chlamydia in the vasculature”. In addition, the “partition coefficient (n-octanol:water)” value in data set [2] is recorded as 70, 569-900,000. In data set [3] (acidic pH 1, room temperature, in one hour), the “degradation to 25-desacetyl derivative” value is on record as “approximately 6%”. The “degradation (ester hydrolysis)” value in data set [3] (highly alkaline solutions) is given as “rapid”. Also, the “potency against C. pneumoniae relative to roxithromycin” value in the data set on C. pneumoniae [4] is listed as 2000 times. Besides, the “patients in whom Chlamydia was eradicated” value with Chlamydia is on record as more than 86%.
`CC[C@H]1OC(=O)[C@H](C)[C@@H](O[C@H]2C[C@@](C)(OC)[C@@H](O)[C@H](C)O2)[C@H](C)[C@@H](O[C@@H]2O[C@H](C)C[C@H](N(C)C)[C@H]2O)[C@](C)(O)C[C@@H](C)CN(C)[C@H](C)[C@@H](O)[C@]1(C)O` [azithromycin, reference compound]: the “infectious burden of Chlamydia in the vasculature (in words)” value with C. pneumoniae [1] is recorded as “reduced the infectious burden of Chlamydia in the vasculature”. Moreover, the “prevention of Chlamydia-induced plaque formation (in words)” value in the data set on C. pneumoniae [5] is reported as “significant effect in preventing Chlamydia-induced plaque formation”.
